Data taken from PMC4191062, “Development of αGlcN(1↔1)αMan-Based Lipid A Mimetics as a Novel Class of Potent Toll-like Receptor 4 Agonists” (Journal of Medicinal Chemistry, 2014).
Like-named read-outs stand apart in the source and are kept apart here.

Assays:
human dendritic cells = assay: Cytokine production in human monocyte-derived dendritic cells (Luminex); assay type: cell-based; settings: hDCs, 24 h
Experimental: Activated DCs were examined for the production of pro-inflammatory cytokines TNF-α, IL-6, and IL-12, which contribute to the modulation of the T cell response and innate effector functions.[57] The release of TNF-α and IL-6 reached nearly maximum levels (attained with 10 ng/mL LPS) at the α,α-GM-LAM 1 concentration of 1 ng/mL (Figure 7A).
Human peripheral blood monocytes were cultured for 6 days in GM-CSF and IL-4 to receive immature monocyte-derived DCs and were then stimulated with the indicated concentrations of 1 and 3 using 10 ng/mL LPS as positive control (solutions in PRMI containing 10% FCS and 0.005–0.01% DMSO). The amounts of IL-6, IL-12, IL-10, and TNF-α in the supernatants of the cells were analyzed after 24 h by Luminex. Results are representative of three independent experiments for 1 and of two experiments for 3. Mean values of duplicate examinations ± SD are presented.

[1] = system: bone marrow-derived macrophages (BMDM); assay: TNF-α and IL-6 production in mouse bone marrow-derived macrophages (ELISA); assay type: cell-based, C57BL/6J mice; settings: mBMDM
Experimental: The ability of Lipid A mimetics 1–3 to induce the production of TNF-α and IL-6 from bone marrow-derived macrophages (BMDM) in mice was subsequently examined and compared to that of synthetic E. coli Lipid A and E. coli MPLA, which are reliable positive controls due to their chemical purity and homogeneity (Figure 6). […] Likewise, 1 nM (1.8 ng/mL) of 1 or 2 triggered the release of a 3-fold higher amount of IL-6 (1500 pg/mL) compared to Lipid A (500 pg/mL).
Bone-marrow-derived microphages (BMDMs) were isolated and differentiated from the bone marrow of C57BL/6J mice. The bone marrow was flushed from femur and fibia with RPMI media. The erythrocytes were lysed with 0.88% ammonium chloride, 15 min at 37 °C. A single-cell suspension of the bone marrow cells was then seeded in cell culture flasks at a concentration of 1 × 10^6 cells/mL in RPMI supplemented with 20% FBS and 40 ng/mL recombinant M-CSF. The cell culture medium was changed on day 3. On day 6, the differentiated cells were trypsinized, counted, and seeded in 24-well plates at a concentration of 1 × 10^6 cells/mL in RPMI supplemented with 10% FBS. After 24 h, the cells were stimulated with Lipid A mimetics 1–3 and with synthetic E. coli Lipid A/MPLA (E. coli O111:B4 LPS was used as positive control) for 16 h. The nanomolar concentrations of 1–3 were calculated according to the MW of the synthetic compounds. The supernatants were then tested for cytokines using Ready-Set-Go ELISA kits (eBioscience).

[2] = molecular target: hTLR4/hMD-2/CD14-transfected HEK293 cells (Homo sapiens, UniProt O00206+Q9Y6Y9); assay: hTLR4/MD-2/CD14-transfected HEK293 (HEK-Blue) activation assay, NF-κB-dependent SEAP reporter; assay type: cell-based; settings: for concentration at which TLR4 saturation plateau was reached: NF-κB/SEAP dose response
Chain of hTLR4/hMD-2/CD14-transfected HEK293 cells (O00206 24-839): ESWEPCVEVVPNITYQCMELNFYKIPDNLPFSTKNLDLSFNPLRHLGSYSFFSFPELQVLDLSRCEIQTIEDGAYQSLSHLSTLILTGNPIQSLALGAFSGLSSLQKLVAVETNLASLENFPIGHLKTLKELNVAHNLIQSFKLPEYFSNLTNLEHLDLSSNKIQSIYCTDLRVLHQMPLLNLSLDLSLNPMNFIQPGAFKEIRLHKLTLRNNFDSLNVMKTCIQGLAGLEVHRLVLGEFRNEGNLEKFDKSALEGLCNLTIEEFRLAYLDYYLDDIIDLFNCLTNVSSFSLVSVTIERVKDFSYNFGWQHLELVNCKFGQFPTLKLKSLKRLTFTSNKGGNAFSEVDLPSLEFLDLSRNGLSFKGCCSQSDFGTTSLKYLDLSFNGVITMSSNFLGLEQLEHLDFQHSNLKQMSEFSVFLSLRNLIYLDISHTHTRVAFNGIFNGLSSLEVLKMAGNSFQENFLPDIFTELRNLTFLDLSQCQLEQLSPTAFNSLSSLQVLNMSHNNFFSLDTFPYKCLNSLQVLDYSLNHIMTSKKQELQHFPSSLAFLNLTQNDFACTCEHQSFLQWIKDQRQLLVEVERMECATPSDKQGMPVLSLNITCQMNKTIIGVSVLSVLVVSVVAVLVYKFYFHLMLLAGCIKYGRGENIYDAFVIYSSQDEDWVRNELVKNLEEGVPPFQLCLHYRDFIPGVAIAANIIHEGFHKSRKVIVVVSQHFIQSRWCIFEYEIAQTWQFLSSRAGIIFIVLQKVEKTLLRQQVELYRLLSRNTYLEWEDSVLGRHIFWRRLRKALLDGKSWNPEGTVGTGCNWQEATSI
Chain of hTLR4/hMD-2/CD14-transfected HEK293 cells (Q9Y6Y9 17-160 limits assumed): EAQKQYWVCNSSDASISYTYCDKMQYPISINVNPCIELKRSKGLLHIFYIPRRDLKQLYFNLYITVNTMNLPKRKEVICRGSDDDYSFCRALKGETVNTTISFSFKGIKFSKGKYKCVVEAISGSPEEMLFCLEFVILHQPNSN
Source text: The propensity of the α,α-GM-LAMs 1–3 to stimulate TLR4-mediated immune signaling was first assessed in the hTLR4/hMD-2/CD14 transfected human embryonic kidney (HEK) 293 cells (HEK-Blue). Since we were particularly interested in the molecular recognition mechanisms implicated in the binding of LPS by the MD-2·TLR4 complex wherein the Lipid A/Re-LPS portion of LPS is exclusively involved, we evaluated the activities of α,α-GM-LAMs 1–3 compared to E. coliRe-LPS (Figure 1A). It has been previously shown that the minimum structural requirement for the expression of the highest cytokine-inducing potency resides in Re-LPS, which entails two 3-deoxy-D-manno-oct-2-ulosonic acid (Kdo) residues in addition to Lipid A (Supporting Information, SI-Figure 1A).[54],[55] Moreover, the Re-LPS has a defined molecular weight (MW) similar to the MW range for Lipid A mimetics (1.8–2.2 kDa), in contrast to wild-type LPS having variable MW (10–15 kDa), so that the direct comparison of a dose-dependent response between compounds 1–3 and Re-LPS is more appropriate. The TLR4-stimulating activity of Lipid A mimetics 1–3 was examined over a wide concentration range by monitoring of the activation of the NF-κB regulated signal transduction pathway via measuring the induction of secreted embryonic alkaline phosphatase (SEAP) and compared to the responses elicited by E. coliRe-LPS and SM-MPLA.
Growth conditions and activation assay were set as recommended by InvivoGen. The cells were stimulated with the solutions of compounds 1–3 or LPS/Re-LPS in DMEM supplemented by 10% FCS at the indicated concentrations. […] The compounds were added in a total volume of 20 μL to 25000 HEK-Blue hTLR4 cells in 180 μL plates and were incubated for 20–24 h at 37 °C and 5% CO2. SEAP levels were determined by incubation of 20 μL of challenged cell supernatants with 180 μL of detection reagent (QUANTI-Blue), and the color development was measured at 650 nm using a spectrophotometer (SpectraMAX 190). Data were combined from n = 3 independent experiments; error bars indicate standard error of the mean.
Supplementary SI-Figure 1
E. coli Re-LPS E. coli O111:B4
SI-Figure 1. (A) Dose-dependent activation of TLR4 signaling in hTLR4/hMD-2/hCD14 transfected HEK293 cells (HEK-Blue) by E. coli Re-LPS compared to E. coli O111:B4 LPS. [nM] concentrations were calculated from [ng/ml] concentrations based on the following molecular weights (MW): MWE. coli Re-LPS 2339 Da, MWE. coli O111:B4 LPS 10000 Da. (B) Dose-dependent activation of TLR4 signaling in hTLR4/hMD-2/hCD14 transfected HEK293 cells (HEK-Blue) by Lipid A mimetics 1- 3 compared to E. coli Re-LPS and S. minnesota MPLA. Non-linear curve fit (variable slope) was calculated using GraphPad Prism and is shown for the mean curves. Dotted lines indicate corresponding Ec50 values. Statistical analysis was performed on non-linear curve fits on individual datasets using an un-paired two-tailed t-test (*** indicates a p value < 0.001, ns indicates non-significant change). Top, bottom, hill slope and Ec50 values of non-linear curve fit on individual datasets are shown. […]

[3] = SEAP induction, 20–24 h, mean curve, nM calculated from ng/ml via MW, read-out: EC50 NF-κB activation
[4] = SEAP induction, mean curve, read-out: Ec50 (ng/ml) (converted)
[5] = dataset n1, read-out: Ec50 (ng/ml), non-linear curve fit on individual dataset (converted)
[6] = dataset n2, read-out: Ec50 (ng/ml), non-linear curve fit on individual dataset (converted)
[7] = dataset n3, read-out: Ec50 (ng/ml), non-linear curve fit on individual dataset (converted)

EC50 [2, 3] [nM] | EC50 [2, 4] [nM] | Bottom of non-linear curve fit ([2]; dataset n1) | HillSlope of non-linear curve fit ([2]; dataset n1) | Top of non-linear curve fit ([2]; dataset n1) | EC50 [2, 5] [nM] | Bottom of non-linear curve fit ([2]; dataset n2) | HillSlope of non-linear curve fit ([2]; dataset n2) | Top of non-linear curve fit ([2]; dataset n2) | EC50 [2, 6] [nM] | Bottom of non-linear curve fit ([2]; dataset n3) | HillSlope of non-linear curve fit ([2]; dataset n3) | Top of non-linear curve fit ([2]; dataset n3) | EC50 [2, 7] [nM] | Compound | fold higher amount of IL-6 compared to Lipid A ([1]; 1 nM) [fold] | concentration at which TLR4 saturation plateau was reached [2] [ng/mL] | further results
0.08 | 0.0804 | 0.216 | 1.193 | 1.330 | 0.0884 | 0.232 | 1.250 | 1.319 | 0.0827 | 0.236 | 1.246 | 1.320 | 0.0758 | CCCCCCCCCCCCCC(=O)O[C@H](CCCCCCCCCCC)CC(=O)O[C@@H]1[C@@H](NC(=O)C[C@@H](CCCCCCCCCCC)OC(=O)CCCCCCCCCCC)[C@@H](O[C@H]2O[C@H](COP(=O)(O)O)[C@@H](OC(=O)C[C@@H](CCCCCCCCCCC)OC(=O)CCCCCCCCC)[C@H](O)[C@@H]2OC)O[C@H](CO)[C@H]1OP(=O)(O)O [Compound 2, 4-O-[(R)-3-(Decanoyloxy)tetradecanoyl]-2-O-methyl-6-O-phosphoryl-α-mannopyranosyl-(1↔1)-2-deoxy-2-[(R)-3-(dodecanoyloxy)tetradecanoylamino]-4-O-phosphoryl-3-O-[(R)-3-(tetradecanoyloxy)tetradecanoyl]-α-D-glucopyranoside] | 3 | 1 | fold increase of TLR-4 stimulating activity on shortening lipid side chain at Man C-4 by 2×CH2 ([2]; 2 compared with 1): 5 fold
31 | 30.8 | 0.217 | 1.120 | 1.425 | 30.5 | 0.221 | 1.170 | 1.426 | 28.2 | 0.216 | 1.145 | 1.453 | 34.1 | CCCCCCCCCCCCCC(=O)O[C@H](CCCCCCCCCCC)CC(=O)O[C@@H]1[C@@H](NC(=O)C[C@@H](CCCCCCCCCCC)OC(=O)CCCCCCCCCCC)[C@@H](O[C@H]2O[C@H](CO)[C@@H](OC(=O)C[C@@H](CCCCCCCCCCC)OC(=O)CCCCCCCCCCC)[C@H](O)[C@@H]2OC)O[C@H](CO)[C@H]1OP(=O)(O)O [Compound 3, 4-O-[(R)-3-(Dodecanoyloxy)tetradecanoyl]-2-O-methyl-α-D-mannopyranosyl-(1↔1)-2-deoxy-2-[(R)-3-(dodecanoyloxy)tetradecanoylamino]-4-O-phosphoryl-3-O-[(R)-3-(tetradecanoyloxy)tetradecanoyl]-α-D-glucopyranoside] |  |  | release of TNF-α, IL-6, and IL-10 compared to 1 (human dendritic cells): less efficient; expression level of IL-6 ([1]; 1 nM): only marginal expression level; IL-6 release compared to MPLA ([1]; concentrations above 1 nM): higher IL-6 release than MPLA; activation profile compared to SM-MPLA ([2]; at concentrations above 10 ng/mL): more potent activation profile than SM-MPLA

Compound | EC50 [2, 3] [nM] | EC50 [2, 4] [nM] | Bottom of non-linear curve fit ([2]; dataset n1) | HillSlope of non-linear curve fit ([2]; dataset n1) | Top of non-linear curve fit ([2]; dataset n1) | EC50 [2, 5] [nM] | Bottom of non-linear curve fit ([2]; dataset n2) | HillSlope of non-linear curve fit ([2]; dataset n2) | Top of non-linear curve fit ([2]; dataset n2) | EC50 [2, 6] [nM] | Bottom of non-linear curve fit ([2]; dataset n3) | HillSlope of non-linear curve fit ([2]; dataset n3) | Top of non-linear curve fit ([2]; dataset n3) | EC50 [2, 7] [nM] | fold higher amount of IL-6 compared to Lipid A ([1]; 1 nM) [fold] | concentration at which TLR4 saturation plateau was reached [2] [ng/mL] | further results
CCCCCCCCCCCCCC(=O)O[C@H](CCCCCCCCCCC)CC(=O)O[C@@H]1[C@@H](NC(=O)C[C@@H](CCCCCCCCCCC)OC(=O)CCCCCCCCCCC)[C@@H](O[C@H]2O[C@H](COP(=O)(O)O)[C@@H](OC(=O)C[C@@H](CCCCCCCCCCC)OC(=O)CCCCCCCCCCC)[C@H](O)[C@@H]2OC)O[C@H](CO)[C@H]1OP(=O)(O)O [Compound 1, 4-O-[(R)-3-(Dodecanoyloxy)tetradecanoyl]-2-O-methyl-6-O-phosphoryl-α-D-mannopyranosyl-(1↔1)-2-deoxy-2-[(R)-3-(dodecanoyloxy)tetradecanoylamino]-4-O-phosphoryl-3-O-[(R)-3-(tetradecanoyloxy)tetradecanoyl]-α-D-glucopyranoside] | 0.4 | 0.424 | 0.212 | 1.282 | 1.369 | 0.505 | 0.225 | 1.341 | 1.312 | 0.352 | 0.215 | 1.257 | 1.348 | 0.421 | 3 | 5 | concentration at which release of TNF-α and IL-6 reached nearly maximum levels (attained with 10 ng/mL LPS) (human dendritic cells): 1 ng/mL; expression of IL-12 (human dendritic cells): efficiently induced
